Series [1] deals with T1, Cannabinoid receptor 2 (Homo sapiens, UniProt P34972). Put plainly: Agonist activity at human CB2 receptor expressed in HEK293 cells assessed as inhibition of forskolin-induced cAMP production incubated for 15 mins by cAMP HTRF assay. In kind it is functional, cell-based. In general terms: cAMP levels reflect the balance of adenylyl cyclase and phosphodiesterase activity.

In series [2] the test system is Mus musculus. As to the kind of experiment: Antifibrotic activity in BALB/c mouse model of BLM-induced systemic sclerosis assessed as reduction in TGF-beta mRNA expression at 1 to 5 mg/kg, sc dosed once daily for 4 weeks by quantitative real-time PCR analysis. Type of series: functional, organism-based. Conditions: dose 1-5 mg/kg. In general terms: In qPCR the cycle at which signal appears reflects the starting amount.

Series [3] addresses T2, Glucose-dependent insulinotropic receptor (Homo sapiens) (UniProt Q8TDV5).
T2 sequence (whole entry): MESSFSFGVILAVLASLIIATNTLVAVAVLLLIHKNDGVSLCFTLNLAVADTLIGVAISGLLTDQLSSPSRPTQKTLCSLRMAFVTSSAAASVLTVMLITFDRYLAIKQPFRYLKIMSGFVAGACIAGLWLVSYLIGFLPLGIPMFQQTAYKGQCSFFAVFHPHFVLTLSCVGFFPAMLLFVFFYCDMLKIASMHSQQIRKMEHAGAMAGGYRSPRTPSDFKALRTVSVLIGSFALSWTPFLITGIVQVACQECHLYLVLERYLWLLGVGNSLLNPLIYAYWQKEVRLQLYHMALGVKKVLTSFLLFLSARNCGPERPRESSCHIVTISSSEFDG
Put plainly: Antagonist activity at GPR119 (unknown origin) at 10 uM.

A short description of series [4]: Volume of distribution in BALB/c mouse at 5 mg/kg, po measured during 0.083 to 24 hrs post dose by LC-MS/MS analysis. In kind it is ADME, organism-based. Conditions: in vivo, time 0.083-24 hrs.
The nature of series [5]: in vitro. Conditions: human, liver microsomes.
Description: Half life in human liver microsomes at 1 uM in presence of NADPH by LC-MS/MS analysis
A short description of series [6]: in vitro. To be noted: human, liver microsomes. The source holds these as a separate data set. (In general: Liver microsomes are a subcellular fraction often used to study metabolism.)
Description: Stability in human liver microsomes assessed as parent compound remaining at 1 uM incubated for 60 mins in presence of NADPH by LC-MS/MS analysis
A short description of series [7]: Half life in BALB/c mouse at 1 mg/kg, iv measured during 0.083 to 24 hrs post dose by LC-MS/MS analysis. In kind it is ADME, organism-based. To be noted: in vivo, time 0.083-24 hrs.
The target in series [8] is Prostaglandin E2 receptor EP4 subtype (Homo sapiens) (UniProt P35408). Put plainly: Agonist activity at EP2 (unknown origin) at 10 uM.
Sequence of Prostaglandin E2 receptor EP4 subtype (Homo sapiens) (P35408 whole entry): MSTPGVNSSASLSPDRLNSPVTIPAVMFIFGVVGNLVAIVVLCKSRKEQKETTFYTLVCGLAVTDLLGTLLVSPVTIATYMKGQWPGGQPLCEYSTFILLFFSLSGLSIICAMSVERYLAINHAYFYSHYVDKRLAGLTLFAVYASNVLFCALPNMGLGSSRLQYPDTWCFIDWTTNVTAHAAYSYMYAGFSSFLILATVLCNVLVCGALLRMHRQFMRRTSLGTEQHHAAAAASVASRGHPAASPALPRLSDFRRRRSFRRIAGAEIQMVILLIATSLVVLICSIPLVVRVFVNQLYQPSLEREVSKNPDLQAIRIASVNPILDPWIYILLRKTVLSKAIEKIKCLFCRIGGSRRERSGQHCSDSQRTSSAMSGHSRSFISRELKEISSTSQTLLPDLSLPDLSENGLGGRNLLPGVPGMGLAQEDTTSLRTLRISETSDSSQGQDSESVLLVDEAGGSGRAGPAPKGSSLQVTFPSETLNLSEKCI
Series [9] deals with Mus musculus. Put plainly: Antifibrotic activity in BALB/c mouse model of BLM-induced systemic sclerosis assessed as reduction in dermal pathological symptoms at 1 to 5 mg/kg, sc dosed once daily for 4 weeks by H and E staining based analysis. Type of series: functional, organism-based. To be noted: dose 1-5 mg/kg.
Series [10] concerns the target T1, Cannabinoid receptor 2. Put plainly: Agonist activity at human CB2 receptor expressed in CHO cells assessed as increase in ERK1/2 Thr202/Tyr204 phosphorylation at 10 uM incubated for 15 mins in presence of CB2 antagonist AM630 by Western blot analysis. Type of series: cell-based.
The subject of series [11] is Mus musculus. Put plainly: Antifibrotic activity in BALB/c mouse model of BLM-induced systemic sclerosis assessed as reduction in skin thickness at 5 mg/kg, sc dosed once daily for 4 weeks by H and E staining based analysis. Type of series: functional, organism-based.
Series [12] addresses T3, Cannabinoid receptor 1 (Homo sapiens, UniProt P21554). Put plainly: Agonist activity at human CB1 receptor expressing CHO cells co-expressing Galpha16 by calcium mobilization assay. Type of series: functional, cell-based.
The target in series [13] is T3, Cannabinoid receptor 1. Put plainly: Agonist activity at human CB1 receptor expressing CHO cells co-expressing Galpha16 by calcium mobilization assay relative to CP55940. In kind it is functional, cell-based.
Series [14] in a line: AUC (0 to infinity) in BALB/c mouse at 5 mg/kg, po measured during 0.083 to 24 hrs post dose by LC-MS/MS analysis. Type of series: ADME, organism-based. Conditions: in vivo. Details: route oral, dose 5 mg/kg, time 0.083-24 hrs.
A short description of series [15]: Oral bioavailability in BALB/c mouse at 5 mg/kg measured during 0.083 to 24 hrs post dose by LC-MS/MS analysis. In kind it is ADME, organism-based. To be noted: in vivo, time 0.083-24 hrs.

Results on one compound are retold here after ChEMBL document CHEMBL4765487, “From a Designer Drug to the Discovery of Selective Cannabinoid Type 2 Receptor Agonists with Favorable Pharmacokinetic Profiles for the Treatment of Systemic Sclerosis” (J Med Chem, 2021).

Each structure is given as a SMILES string. The source made the active and inactive calls.

T1 sequence (P34972 whole entry): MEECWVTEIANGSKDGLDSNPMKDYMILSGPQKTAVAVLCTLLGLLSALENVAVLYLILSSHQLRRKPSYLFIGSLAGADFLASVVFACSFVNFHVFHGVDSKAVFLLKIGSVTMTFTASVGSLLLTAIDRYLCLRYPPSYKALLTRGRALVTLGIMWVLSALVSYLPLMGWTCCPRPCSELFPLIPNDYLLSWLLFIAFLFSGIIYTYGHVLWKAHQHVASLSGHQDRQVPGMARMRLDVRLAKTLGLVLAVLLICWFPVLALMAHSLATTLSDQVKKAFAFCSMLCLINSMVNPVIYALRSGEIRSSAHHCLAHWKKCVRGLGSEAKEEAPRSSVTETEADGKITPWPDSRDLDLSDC
T3 sequence (P21554 whole entry): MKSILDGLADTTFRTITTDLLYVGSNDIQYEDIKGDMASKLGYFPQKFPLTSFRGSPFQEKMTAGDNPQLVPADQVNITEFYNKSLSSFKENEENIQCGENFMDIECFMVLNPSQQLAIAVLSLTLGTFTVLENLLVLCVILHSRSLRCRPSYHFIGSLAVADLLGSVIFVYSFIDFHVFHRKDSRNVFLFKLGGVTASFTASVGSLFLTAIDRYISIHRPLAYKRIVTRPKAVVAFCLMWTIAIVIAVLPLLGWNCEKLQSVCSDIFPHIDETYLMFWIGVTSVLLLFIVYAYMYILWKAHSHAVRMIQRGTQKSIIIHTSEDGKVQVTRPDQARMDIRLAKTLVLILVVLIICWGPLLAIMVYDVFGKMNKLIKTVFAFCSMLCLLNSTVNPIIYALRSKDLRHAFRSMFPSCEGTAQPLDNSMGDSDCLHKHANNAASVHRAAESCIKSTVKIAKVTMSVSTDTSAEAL

In general, EC50 refers to the concentration that produces a half-maximal response. Usually half-life stands for the time needed for the level to fall by half in the phase considered. A lower half-life goes with rapid decline. In general, share remaining refers to the share of the starting amount still present when the sample was taken. Low readings indicate more turnover, high ones less turnover. By Emax is commonly meant the greatest response seen or fitted, relative to the assay's reference. What is called AUC(0-inf) is total exposure, with the tail of the curve extrapolated. What is called bioavailability is dose-corrected exposure relative to a reference, in per cent. A higher bioavailability goes with much systemic uptake. Turning to `CC(C)(CO)NC(=O)c1cc(C(C)(C)C)n(-c2ccc(C(F)(F)F)cn2)n1`, the EC50 at Cannabinoid receptor 2 [1] was determined as 10.7 nM; at Cannabinoid receptor 1 [12], 1840 nM. Also, the result in the series with Mus musculus [2], in the series with Mus musculus [9] and in the series on Mus musculus [11] was Active. The result (in [3]; in series [8]; on Cannabinoid receptor 2 [10]) was inactive. Further, the Vd in series [4] stood at 9.2 L/kg. The compound also yielded a half-life at 1 µM in “in vitro [5]” of 1.88 h. Further, the amount remaining at 1 h, 1 µM in the series “in vitro [6]” stood at 64%. This compound also gave a half-life in series [7] of 1.32 h. The maximal response (Emax) on Cannabinoid receptor 1 [13] was 30%. In addition, the area under the curve AUC(0-inf) in [14] was 1670 ng·h/mL. The same compound returned a bioavailability in [15] of 79.5%.
